Measurements reported in ChEMBL document CHEMBL4385622, “Discovery of velpatasvir (GS-5816): A potent pan-genotypic HCV NS5A inhibitor in the single-tablet regimens Vosevi® and Epclusa®” (Bioorg Med Chem Lett, 2019).

Legend:
Details in all cases: in vivo, read-out: Fabs
[1] = Fraction absorbed in rat; format: ADME
[2] = Fraction absorbed in dog; format: ADME, Canis lupus familiaris
[3] = Fraction absorbed in cynomolgus monkey; format: ADME, Macaca fascicularis

| Compound | Fa [1] | Fa [2] | Fa [3] |
| --- | --- | --- | --- |
| COC(=O)N[C@H](C(=O)N1[C@@H](C)CC[C@H]1c1nc2ccc3cc4c(cc3c2[nH]1)OCc1cc(-c2cnc([C@@H]3C[C@H](C)CN3C(=O)[C@H](NC(=O)OC)c3ccccc3)[nH]2)ccc1-4)C(C)C | 4% | – | – |
| COC[C@H]1C[C@@H](c2nc3ccc4cc5c(cc4c3[nH]2)OCc2cc(-c3cnc([C@@H]4C[C@H](C)CN4C(=O)[C@@H](NC(=O)OC)C(C)C)[nH]3)ccc2-5)N(C(=O)[C@@H](NC(=O)OC)C(C)C)C1 | 11% | – | – |
| COC(=O)N[C@H](C(=O)N1[C@@H](C)CC[C@H]1c1ncc(-c2ccc3c(c2)COc2cc4c(ccc5nc([C@@H]6CC[C@H](C)N6C(=O)[C@@H](NC(=O)OC)C(C)C)[nH]c54)cc2-3)[nH]1)C(C)C | 27% | 100% | 53% |
| COC(=O)N[C@H](C(=O)N1C[C@@H](C)C[C@H]1c1nc2ccc3cc4c(cc3c2[nH]1)OCc1cc(-c2cnc([C@@H]3C[C@H](C)CN3C(=O)[C@H](NC(=O)OC)c3ccccc3)[nH]2)ccc1-4)C(C)C | 4% | – | – |
| COC[C@H]1C[C@@H](c2ncc(-c3ccc4c(c3)COc3cc5c(ccc6nc([C@@H]7C[C@@H]8C[C@H]8N7C(=O)[C@@H](NC(=O)OC)C(C)C)[nH]c65)cc3-4)[nH]2)N(C(=O)[C@H](NC(=O)OC)c2ccccc2)C1 | 13% | – | – |
| COC(=O)N[C@H](C(=O)N1CCC[C@H]1c1ncc(-c2ccc3c(c2)COc2cc4c(ccc5nc([C@@H]6C[C@H](C)CN6C(=O)[C@@H](NC(=O)OC)C(C)C)[nH]c54)cc2-3)[nH]1)C(C)C | 10% | – | – |
| COC[C@H]1C[C@@H](c2ncc(-c3cc4c5c(c3)OCc3cc(-c6cnc([C@@H]7CC[C@H](C)N7C(=O)[C@@H](NC(=O)OC)C(C)C)[nH]6)cc(c3-5)OC4)[nH]2)N(C(=O)[C@H](NC(=O)OC)c2ccccc2)C1 | 29% | – | 26% |
| COC(=O)N[C@H](C(=O)N1CCC[C@H]1c1ncc(-c2ccc3c(c2)COc2cc4c(ccc5nc([C@@H]6CCCN6C(=O)[C@H](NC(=O)OC)c6ccccc6)[nH]c54)cc2-3)[nH]1)C(C)C | 13% | 56% | 16% |
| COC(=O)N[C@H](C(=O)N1CCC[C@H]1c1ncc(-c2cc3c4c(c2)COc2cc(-c5cnc([C@@H]6CCCN6C(=O)[C@@H](NC(=O)OC)C(C)C)[nH]5)cc(c2-4)OC3)[nH]1)C(C)C | 18% | 100% | – |
| COC(=O)N[C@@H](C(=O)N1CCC[C@H]1c1ncc(-c2cc3c4c(c2)OCc2cc(-c5cnc([C@@H]6CCCN6C(=O)[C@H](NC(=O)OC)c6ccccc6)[nH]5)cc(c2-4)OC3)[nH]1)c1ccccc1 | 2% | 34% | 2% |
